Measured values reported in patent US7459455B2, “Pyrimidine compounds” (SmithKline Beecham Corporation, priority 2002, dated 2008).
pIC50: −log10 of the molar value. Counter-ions that a name gives are not always drawn.

Experiments:
Recombinant GST-Tie2 = molecular target: T1, Recombinant GST-Tie2 (Homo sapiens, UniProt Q02763); test: Tie2 Fluorescence Polarization Kinase Activity Assay (TIE2-FP); assay type: biochemical; details: activated Tie2, 200 μM ATP
T1 construct: GST
Description: Tie2 Fluorescence Polarization Kinase Activity Assay: (TIE2-FP)
Activation of Recombinant Tie2 Activation:
Recombinant GST-Tie2 was activated by incubating the enzyme in 20 mM Tris-HCl, pH 7.5, 12 mM MgCl2, 100 mM NaCl, 20 μM sodium vanidate, 1 mM DT and 300 μM ATP at room temperature for 2 hours. The activation mixture was then passed through a NAP-25 desalting column (Pharmacia Biotech cat. no. 17-0852-O2) to remove the free ATP. The activated enzyme was stored as aliquots at −80° C. in 20 mM Tris-HCl, pH 7.5 and 100 mM NaCl.
The final assay conditions were 50 mM HEPES, pH 7.5, 5% DMSO (when screening compounds), 200 μM ATP, 5 mM MgCl2, 1 mM DTT, 50 μM sodium vanidate, 1 nM activated enzyme, and 200 μM peptide. IC50's of compounds were measured under subsaturating ATP (200 μM) and varing concentrations of activated Tie2 and peptide substrate (RFWKYEFWR-OH; MW 1873 Da, TFA salt). Panvera Anti-phosphotyrosine antibody (Cat#P2840) and PTK Green Tracer (Cat#P2842) were used to detect the phosphorylated peptide. Polarization was measured on a TECAN Polarion in 138-second cycles for 30 minutes at room temperature. IC50's were then determined from the % polarization using normal calculation methods.

GST-VEGFR2 = molecular target: T2, GST-VEGFR2 (Homo sapiens, UniProt P35968); test: VEGF-R2 Enzyme Assay (VEGF-E), LANCE method; assay type: biochemical; details: GST-VEGFR2, 75 μM ATP, peptide phosphorylation
T2 construct: GST-VEGFR2, baculovirus expressed recombinant constructs of the intracellular domains of human TIE2 tagged by GST; made in house
T2 sequence (P35968 786-1356 limits assumed): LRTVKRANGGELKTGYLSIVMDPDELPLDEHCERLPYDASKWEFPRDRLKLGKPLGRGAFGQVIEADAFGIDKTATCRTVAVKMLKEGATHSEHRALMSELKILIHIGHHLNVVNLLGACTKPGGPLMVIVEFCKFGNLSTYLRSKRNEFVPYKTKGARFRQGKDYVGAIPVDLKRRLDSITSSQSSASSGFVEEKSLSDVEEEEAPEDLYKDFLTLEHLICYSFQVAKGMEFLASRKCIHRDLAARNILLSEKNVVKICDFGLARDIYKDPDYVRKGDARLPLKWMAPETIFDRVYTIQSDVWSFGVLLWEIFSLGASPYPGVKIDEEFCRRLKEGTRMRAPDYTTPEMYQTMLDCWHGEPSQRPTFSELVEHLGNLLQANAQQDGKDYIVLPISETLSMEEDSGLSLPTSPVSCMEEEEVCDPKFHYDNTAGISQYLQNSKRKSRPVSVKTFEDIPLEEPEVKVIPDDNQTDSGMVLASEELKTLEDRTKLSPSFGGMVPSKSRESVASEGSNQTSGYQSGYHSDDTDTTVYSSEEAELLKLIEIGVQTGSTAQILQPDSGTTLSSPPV
Text: VEGF-R2 Enzyme Assay VEGF-E)
The VEGF enzyme assay used the LANCE method (Wallac) and GST-VEGFR2, baculovirus expressed recombinant constructs of the intracellular domains of human TIE2 tagged by GST. The method measured the ability of the purified enzymes to catalyse the transfer of the γ-phosphate from ATP onto tyrosine residues in a biotinylated synthetic peptide, (biotin-aminohexyl-EEEEYFELVAKKKK-NH2). This peptide phosphorylation was detected using the following procedure: GST-VEGFR2 was incubated for 40-60 mins at room temperature with 75 μM ATP, 5 mM MgCl2, 0.1 mM DTT, 0.1 mg/mL BSA and the test compound (diluted from a 10 mM stock in DMSO for desired concentration) in 100 mM HEPES buffer. The reaction was stopped by the addition of EDTA (final concentration 50 mM). Streptavidin linked-APC (allophycocyanin, Molecular Probe) and Europium-labeled anti-phosphorylated tyrosile antibody (Wallac) were then added at the final concentration of 15 nM and 1 nM, respectively. The APC signal was measured using an ARVO multilabel counter (Wallac Berthold, Japan). The percent inhibition of activity was calculated relative to blank control wells. The concentration of test compound that inhibits 50% of activity (IC50) was interpolated using nonlinear regression (Levernberg-Marquardt) and the equation, γ=Vmax (1−x/(K+x))+Y2, where “K” was equal to the IC50. The IC50 values were converted to pIC50 values, i.e., −log IC50 in Molar concentration.

[1] = tested on: Human umbilical cord endothelial cells (HUVEC); test: VEGF-Driven Cellular Proliferation Assay: BrdU Incorporation Assay (VEGF-C); assay type: cell-based
Description: VEGF-Driven Cellular Proliferation Assay: BrdU Incorporation Assay (VEGF-C)
Human umbilical cord endothelial cells (HUVEC, Clonetics, CC2519) were passaged in Type I collagen-coated 100-mm petridishes in EGM-MV medium (Clonetics, CC3125) at 37 C in a humidified 5% CO2, 95% air incubator. (HUVEC passaged more than 6 times in vitro were discarded and not subjected to assaying.) The cells were harvested using trypsin/EDTA, counted using a haemocytometer and plated at 5000 cells/well in a Type I-collagen coated 96-well plate (Becton Dickinson, 354407) in M199 medium (Gibco BRL, 12340-030) containing 5% FBS (Hyclone, A 1115-L) and gentamicin (at 50 ug/ml, Gibco BRL). After incubation overnight at 37° C., the media were replaced with 100 ul of M199 serum-free medium containing compounds at various concentrations with 0.6% DMSO and gentamicin. The compounds were diluted in serum-free M199 medium from 10 mM stock solutions prepared in 100% DMSO. After a 30 min incubation at 37° C. the cells were fed with 100 ul of serum-free M199 medium containing gentamicin, 0.2% culture-grade bovine serum albumin (BSA, Sigma A1993) and 20 ng/ml of VEGF (R&D systems, 293-VE) or 0.6 ng/ml of basic FGF (R&D systems, 233-FB), and cultured at 37° C. for another 24 h. The cells were pulsed with bromodeoxyuridine (BrdU at 10 μM in serum-free M199) at 37° C. for an additional 24 h. The incorporation of BrdU into the proliferating HUVEC were analyzed using BrdU Cell Proliferation ELISA (Roche Molecular Biochemicals, 1647229) according to the manufacturer's protocols. The optical density at 450 nm was measured with a multilabel counter (ARVO SX, Wallac). The percent inhibition of cell growth was calculated relative to blank control wells. The concentration of test compound that inhibits 50% of cell growth (IC50) was interpolated using nonlinear regression (Levernberg-Marquardt) and the equation, γ=Vmax (1−x/(K+x))+Y2, where “K” was equal to the IC50. The IC50 values were converted to pIC50 values, i.e., −log IC50 in Molar concentration.

T1 sequence (Q02763 770-1124 limits assumed): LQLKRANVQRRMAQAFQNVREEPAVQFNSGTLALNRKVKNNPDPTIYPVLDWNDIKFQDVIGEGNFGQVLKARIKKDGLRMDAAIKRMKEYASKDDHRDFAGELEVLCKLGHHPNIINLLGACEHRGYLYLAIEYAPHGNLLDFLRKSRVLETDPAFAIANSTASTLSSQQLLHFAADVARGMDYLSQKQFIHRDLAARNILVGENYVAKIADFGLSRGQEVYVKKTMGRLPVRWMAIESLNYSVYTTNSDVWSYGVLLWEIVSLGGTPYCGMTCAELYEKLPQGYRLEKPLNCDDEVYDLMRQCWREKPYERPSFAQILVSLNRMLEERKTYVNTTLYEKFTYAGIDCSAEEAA

SMILES | pIC50 (Recombinant GST-Tie2) | pIC50 (GST-VEGFR2) | pIC50 [1]
CN(c1ccc(NC(=O)Nc2ccc(OC(F)(F)F)cc2)cc1)c1ccnc(Nc2cccc(S(N)(=O)=O)c2)n1 [Example 1, 3-{[4-(methyl{4-[({[4-(trifluoromethoxy)phenyl]amino}carbonyl)amino]phenyl}-amino)pyrimidin-2-yl]amino}benzenesulfonamide] | > 7.00 | > 7.00 | > 7.00
CN(c1cccc(NC(=O)Nc2cccc(F)c2)c1)c1ccnc(Nc2cccc(S(N)(=O)=O)c2)n1 [Example 16, 3-({4-[[3-({[(3-Fluorophenyl)amino]carbonyl}amino)phenyl](methyl)amino]pyrimidin-2-yl}amino)benzenesulfonamide] | 6.00 to 7.00 | > 7.00 | > 7.00
CN(c1ccc(NC(=O)NCc2ccccc2Cl)cc1)c1ccnc(Nc2cccc(S(N)(=O)=O)c2)n1 [Example 5, 3-({4-[[4-({[(2-chlorobenzyl)amino]carbonyl}amino)phenyl](methyl)amino]pyrimidin-2-yl}amino)benzenesulfonamide] | > 7.00 | > 7.00 | > 7.00
CN(c1ccc(NC(=O)Nc2ccc(OC(F)(F)F)cc2)cc1)c1ccnc(Nc2ccc(S(N)(=O)=O)cc2)n1 [Example 21, 4-{[4-(methyl{4-[({[4-(trifluoromethoxy)phenyl]amino}carbonyl)amino]phenyl}amino)pyrimidin-2-yl]amino}benzenesulfonamide] | > 7.00 | > 7.00 | > 7.00
CN(c1cccc(NC(=O)Nc2cccc(Cl)c2)c1)c1ccnc(Nc2cccc(S(N)(=O)=O)c2)n1 [Example 15, 3-({4-[[3-({[(3-Chlorophenyl)amino]carbonyl}amino)phenyl](methyl)amino]pyrimidin-2-yl}amino)benzenesulfonamide] | > 7.00 | > 7.00 | > 7.00
CN(c1ccc(NC(=O)Nc2cccc(Cl)c2)cc1)c1ccnc(Nc2cccc(S(N)(=O)=O)c2)n1 [Example 9, 3-({4-[[4-({[(3-Chlorophenyl)amino]carbonyl}amino)phenyl](methyl)amino]-pyrimidin-2-yl}amino)benzenesulfonamide] | > 7.00 | > 7.00 | > 7.00
CCS(=O)(=O)c1ccc(OC)c(Nc2nccc(N(C)c3ccc(NC(=O)Nc4cccc(F)c4)cc3)n2)c1 [Example 18, N-{4-[(2-{[5-(Ethylsulfonyl)-2-methoxyphenyl]amino}pyrimidin-4-yl)(methyl)amino]phenyl}-N′-(3-fluorophenyl)urea] | > 7.00 | > 7.00 | > 7.00
CN(c1ccc(NC(=O)Nc2cccc(F)c2)cc1)c1ccnc(Nc2ccc(CS(C)(=O)=O)cc2)n1 [Example 12, N-(3-fluorophenyl)-N′-(4-{methyl[2-({4-[(methylsulfonyl)methyl]phenyl}amino)pyrimidin-4-yl]amino}phenyl)urea hydrochloride] | > 7.00 | > 7.00 | > 7.00
CCc1cccc(NC(=O)Nc2ccc(N(C)c3ccnc(Nc4cccc(S(N)(=O)=O)c4)n3)cc2)c1 [Example 6, 3-({4-[[4-({[(3-ethylphenyl)amino]carbonyl}amino)phenyl](methyl)amino]pyrimidin-2-yl}amino)benzenesulfonamide] | > 7.00 | > 7.00 | > 7.00

More lines, main results first:

pIC50 (Recombinant GST-Tie2) | pIC50 (GST-VEGFR2) | SMILES | pIC50 [1]
> 7.00 | > 7.00 | CCS(=O)(=O)c1ccc(OC)c(Nc2nccc(N(C)c3ccc(NC(=O)Nc4cccc(Cl)c4)cc3)n2)c1 [Example 8, N-(3-Chlorophenyl)-N′-{4-[(2-{[5-(ethylsulfonyl)-2-methoxyphenyl]amino}pyrimidin-4-yl)(methyl)amino]phenyl}urea] | > 7.00
> 7.00 | > 7.00 | Cc1cccc(NC(=O)Nc2ccc(N(C)c3ccnc(Nc4cccc(S(N)(=O)=O)c4)n3)cc2)c1 [Example 4, 3-[(4-{methyl[4-({[(3-methylphenyl)amino]carbonyl}amino)phenyl]amino}pyrimidin-2-yl)amino]benzenesulfonamide] | > 7.00
> 7.00 | > 7.00 | CN(c1ccc(NC(=O)Nc2cc(C(F)(F)F)ccc2F)cc1)c1ccnc(Nc2cccc(S(N)(=O)=O)c2)n1 [Example 11, 3-({4-[{4-[({[2-Fluoro-5-(trifluoromethyl)phenyl]amino}carbonyl)amino]phenyl}(methyl)amino]pyrimidin-2-yl}amino)benzenesulfonamide] | > 7.00
> 7.00 | > 7.00 | CN(c1ccc(NC(=O)Nc2cc(C(F)(F)F)ccc2F)cc1)c1ccnc(Nc2ccc(CS(C)(=O)=O)cc2)n1 [Example 13, N-[2-fluoro-5-(trifluoromethyl)phenyl]-N′-(4-{methyl[2-({4-(methylsulfonyl)methyl]phenyl}amino)pyrimidin-4-yl]amino}phenyl)urea hydrochloride] | > 7.00
> 7.00 | > 7.00 | CN(c1ccc(NC(=O)Nc2ccc(Oc3ccccc3)cc2)cc1)c1ccnc(Nc2cccc(S(N)(=O)=O)c2)n1 [Example 3, 3-[(4-{methyl[4-({[(4-phenoxyphenyl)amino]carbonyl}amino)phenyl]amino}-pyrimidin-2-yl)amino]benzenesulfonamide] | > 7.00
> 7.00 | > 7.00 | CN(c1ccc(NC(=O)Nc2ccccc2)cc1)c1ccnc(Nc2cccc(S(N)(=O)=O)c2)n1 [Example 10, 3-({4-[{4-[(anilinocarbonyl)amino]phenyl}(methyl)amino]pyrimidin-2-yl}amino)benzenesulfonamide] | > 7.00
> 7.00 | > 7.00 | CCS(=O)(=O)c1ccc(OC)c(Nc2nccc(N(C)c3ccc(NC(=O)Nc4cc(C(F)(F)F)ccc4F)cc3)n2)c1 [Example 17, N-{4-[(2-{[5-(Ethylsulfonyl)-2-methoxyphenyl]amino}pyrimidin-4-yl)(methyl)amino]phenyl}-N′-[2-fluoro-5-(trifluoromethyl)phenyl]urea] | > 7.00
> 7.00 | > 7.00 | CN(c1cccc(NC(=O)Nc2cc(C(F)(F)F)ccc2F)c1)c1ccnc(Nc2cccc(S(N)(=O)=O)c2)n1 [Example 14, 3-({4-[{3-[({[2-Fluoro-5-(trifluoromethyl)phenyl]amino}carbonyl)amino]phenyl}(methyl)amino]pyrimidin-2-yl}amino)benzenesulfonamide] | > 7.00
